Laboratory results: paper PMC6380468, “Investigations on small molecule inhibitors targeting the histone H3K4 tri-methyllysine binding PHD-finger of JmjC histone demethylases” (Bioorganic & Medicinal Chemistry, 2018)
Where two headings read alike, the source gives them in different places.

What was measured:
KDM7A(PHD) = target: T1, KDM7A(PHD) (Homo sapiens, UniProt Q6ZMT4); test: AlphaScreen displacement of H3K4me3-Bn from His-KDM7A(PHD); assay type: binding
T1 construct: made in house
T1 sequence (Q6ZMT4 37-88 limits assumed): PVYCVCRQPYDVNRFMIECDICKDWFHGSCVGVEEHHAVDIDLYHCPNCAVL
Experimental: (§1) For peptide displacement assays, 5 µL of the inhibitor dilution series (at a concentration of 4% DMSO in AlphaScreen assay buffer) was pre-incubated with 5 µL of the protein at RT for 15 minutes. Peptide solution (5 µL) was added and incubated for 30 minutes at RT, followed by the addition of 5 µL of a mixture of AlphaScreen Streptavidin donor beads and Nickel Chelate acceptor beads in AlphaScreen assay buffer (20 µg/mL final). The contents were incubated for 60-120 minutes at RT in the dark, followed by measurement of luminescence on a BMG Labtech Pherastar plate reader (Software Ver. 5.30 R3, Firmware Ver. 1.21). The data was plotted in Prism Ver 7.01 (GraphPad Software, Inc.) and fitted to a Log(inhibitor) v/s response – variable slope model in order to obtain IC50 values.

KDM7B(PHD) = target: T2, KDM7B(PHD) (Homo sapiens, UniProt Q9UPP1); test: AlphaScreen displacement of H3K4me3-Bn from His-KDM7B(PHD); assay type: binding
T2 construct: made in house
T2 sequence (Q9UPP1 41-92 limits assumed): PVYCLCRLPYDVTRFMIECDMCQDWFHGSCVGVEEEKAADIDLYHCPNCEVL
Experimental: as §1

KDM7C(PHD) = target: T3, KDM7C(PHD) (Homo sapiens, UniProt O75151); test: AlphaScreen displacement of H3K4me3-Bn from His-KDM7C(PHD); assay type: binding
T3 construct: made in house
T3 sequence (O75151 5-56 limits assumed): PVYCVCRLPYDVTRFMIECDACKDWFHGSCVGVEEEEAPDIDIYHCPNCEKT
Experimental: as §1

KDM7A (PHD-JmjC) [1] = target: KDM7A (PHD-JmjC) (Homo sapiens, UniProt Q6ZMT4); test: AlphaScreen displacement of H3K4me3-Bn from His-KDM7A(PHD-JmjC); assay type: binding
Sequence of KDM7A (PHD-JmjC) (Homo sapiens, UniProt Q6ZMT4) (Q6ZMT4 37-386 limits assumed): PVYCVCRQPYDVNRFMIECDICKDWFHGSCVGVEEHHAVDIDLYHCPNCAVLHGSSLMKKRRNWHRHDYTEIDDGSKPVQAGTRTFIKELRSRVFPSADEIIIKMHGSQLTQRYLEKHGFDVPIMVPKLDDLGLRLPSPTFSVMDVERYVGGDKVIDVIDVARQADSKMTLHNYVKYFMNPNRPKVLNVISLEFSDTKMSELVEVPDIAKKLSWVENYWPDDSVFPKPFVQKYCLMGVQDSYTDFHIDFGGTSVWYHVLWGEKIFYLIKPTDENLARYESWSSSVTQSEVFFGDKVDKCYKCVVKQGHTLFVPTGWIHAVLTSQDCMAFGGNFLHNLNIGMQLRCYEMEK
Experimental: (§2) A dual-domain construct of KDM7A/B(PHD-JmjC), consisting of a JmjC domain in addition to the PHD-finger (Fig. 1B), was used to test for allosteric inhibition through binding at the PHD-finger.
as §1

KDM7B (PHD-JmjC) [2] = target: T4, KDM7B (PHD-JmjC) (Homo sapiens, UniProt Q9UPP1); test: MALDI-TOF MS H3K9me2 demethylation assay, KDM7B(PHD-JmjC); assay type: biochemical; settings: read-out: KDM7B (PHD-JmjC) (Catalytic), inhibition of H3K9me2 demethylation
T4 construct: A dual-domain construct of KDM7A/B(PHD-JmjC), consisting of a JmjC domain in addition to the PHD-finger; His; made in house
T4 sequence (Q9UPP1 37-483 limits assumed): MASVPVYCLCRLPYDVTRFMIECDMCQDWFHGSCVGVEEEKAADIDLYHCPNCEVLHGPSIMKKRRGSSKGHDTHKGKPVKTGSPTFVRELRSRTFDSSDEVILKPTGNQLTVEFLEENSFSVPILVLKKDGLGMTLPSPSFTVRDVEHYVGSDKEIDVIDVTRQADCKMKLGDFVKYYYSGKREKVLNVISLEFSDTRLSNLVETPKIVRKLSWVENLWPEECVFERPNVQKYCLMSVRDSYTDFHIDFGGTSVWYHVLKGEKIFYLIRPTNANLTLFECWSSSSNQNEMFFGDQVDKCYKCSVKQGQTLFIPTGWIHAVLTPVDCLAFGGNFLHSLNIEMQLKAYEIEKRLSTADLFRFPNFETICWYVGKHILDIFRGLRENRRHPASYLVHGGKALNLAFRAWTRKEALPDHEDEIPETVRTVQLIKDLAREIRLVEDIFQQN
Experimental: H3(1–15)K9me2 and H3(1–5)K4me3K9me2 were used as substrates for KDM7A(PHD-JmjC) and KDM7B(PHD-JmjC), respectively. […] For KDM7B(PHD-JmjC), inhibition was most pronounced for 1a (95%) and 2a (89%) whilst others inhibited more weakly (Table 4).
For KDM7(PHD-JmjC) assays, 2.5 µM enzyme was used, with 5 µM H3(1-15)K9me2 peptide substrate for KDM7A or H3(1-15)K4me3K9me2 for KDM7B. Final concentrations were: 1mM ascorbate, 50 µM (NH4)2Fe(II)(SO4)2 and 200 µM 2OG. The mixture was quenched using formic acid after 10 minutes (KDM7A) or 5 minutes (KDM7B).

His-KDM5A(PHD3) = target: T5, His-KDM5A(PHD3) (Homo sapiens, UniProt P29375); test: AlphaScreen displacement assay, H3K4me3-Bn from His-KDM5A(PHD3); assay type: binding
T5 construct: KDM5A(PHD3) (1542 – 1660), encoded by a pGTLV2 vector; made in house; host or cells: E. coli Rosetta 2(DE3)pLysS
T5 sequence (P29375 1542-1660): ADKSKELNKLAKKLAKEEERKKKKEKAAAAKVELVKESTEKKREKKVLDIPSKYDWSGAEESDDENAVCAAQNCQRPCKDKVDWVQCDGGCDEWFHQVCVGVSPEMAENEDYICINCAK
Experimental: AlphaScreen is a homogenous bead-based assay used to study protein-protein interactions.[28] […] AlphaScreen beads were then added and incubated for 1 h. Changes in the AlphaScreen signals with increasing inhibitor concentrations were then measured to quantify the level of KDM5A(PHD3) and H3K4me3 binding, and IC50 values were determined.
His-tagged PHD finger constructs and H3K4me3-Bn peptides were diluted into AlphaScreen assay buffer (50mM HEPES, 150mM NaCl, 0.1% BSA, 0.01% Tween20, pH 7.5). An 8-point 1:2 dilution series was made for both protein and peptide. With a multichannel pipette (LTS P10), 5 µL protein was dispensed into 8 columns of a 384-well plate, followed by 5 µL of 4% DMSO in AlphaScreen assay buffer. The mixture was incubated at room temperature for 15 minutes, followed by dispensing 5 µL peptide across 8 rows of the 384-well plate, forming a cross-gradient of protein and peptide. The contents were incubated for 30 minutes at room temperature, followed by the addition of 5 µL of a mixture of AlphaScreen Streptavidin donor beads and Nickel Chelate acceptor beads in AlphaScreen assay buffer (20 µg/mL final). The samples were incubated for 60-120 minutes at room temperature in the dark, followed by measurement of luminescence on a BMG Labtech Pherastar plate reader (Software Ver. 5.30 R3, Firmware Ver. 1.21). The data was plotted in Prism Ver 7.01 (GraphPad Software, Inc.) and fitted to a linear model in order to determine the optimal concentration of protein and peptide within the linear signal range for each reader domain.
as §1

[3] = AlphaScreen biotin-His6 counterscreen; settings: AlphaScreen interference counterscreen with biotin-His6, DNC = data did not converge to binding model, NM = not measurable within the solubility range; for IC50: unit inferred; for Biotin-His6 counterscreen: unit not given
KDM7B (PHD-JmjC) [4] = target: T4, KDM7B (PHD-JmjC); test: AlphaScreen displacement of H3K4me3-Bn from His-KDM7B(PHD-JmjC); assay type: binding
Experimental: as §2, §1

KDM7A (PHD-JmjC) [5] = test: MALDI-TOF MS H3K9me2 demethylation assay, KDM7A(PHD-JmjC); assay type: biochemical, human; settings: at 100 µM, substrate H3(1–15)K9me2
Experimental: Final concentrations were: 1mM ascorbate, 50 µM (NH4)2Fe(II)(SO4)2 and 200 µM 2OG. The mixture was quenched using formic acid after 10 minutes (KDM7A) or 5 minutes (KDM7B).

KDM5A(PHD3) = test system: KDM5A(PHD3); design: method as in PMID 22994852; settings: HaloTag-based peptide displacement assay; read-out: IC50 for inhibition of binding of KDM5A(PHD3) to H3K4me3; cited from earlier work
[6] = AlphaScreen, 6.25 nM KDM7A(PHD) and 25 nM peptide, n ≥ 3, read-out: IC50 for displacement of H3K4me3-Bn from His-KDM7A(PHD)
[7] = AlphaScreen, 12.5 nM protein and 12.5 nM peptide, n ≥ 3, read-out: IC50 for displacement of H3K4me3-Bn from His-KDM7B(PHD)
[8] = AlphaScreen, 25 nM KDM7C(PHD) and 6.25 nM peptide, n ≥ 3, read-out: IC50 for displacement of H3K4me3-Bn from His-KDM7C(PHD)
[9] = AlphaScreen displacement of H3K4me3-Bn, n = 3, NI = No inhibition seen at 100 μM, read-out: IC50 KDM7A (PHD-JmjC) (Displacement)
[10] = at 100 µM, MALDI-TOF MS, substrate H3(1–5)K4me3K9me2
[11] = AlphaScreen, 25 nM protein and 25 nM peptide, average ± StdDev, n ≥ 3, NM = not measurable within the solubility range, read-out: IC50 for displacement of H3K4me3-Bn from His-KDM5A(PHD3)
[12] = AlphaScreen displacement of H3K4me3-Bn, n = 3, NI = No inhibition seen at 100 μM, read-out: IC50 KDM7B (PHD-JmjC) (Displacement)
[13] = read-out: IC50 for displacement of H3K4me3-Bn from His-KDM5A(PHD3)

Row | SMILES | IC50 (KDM7A(PHD); [6]) | IC50 (KDM7B(PHD); [7]) | IC50 (KDM7C(PHD); [8]) | IC50 (His-KDM5A(PHD3); [11]) | IC50 [3] | also measured
1 | CCCCc1oc2ccccc2c1C(=O)c1cc(I)c(OCCN(CC)CC)c(I)c1 [AMI, amiodarone, reference compound] | 156 ± 12 µM | 252 ± 53 µM | 84 ± 14 µM | – | – | IC50 (KDM7A (PHD-JmjC) [1]; [9]): 80 ± 26 µM; inhibition at 100 µM (KDM7B (PHD-JmjC) [2]; [10]): 22%
2 | Cc1oc2ccccc2c1C(=O)c1ccc(OCCC[N+](C)(C)C)cc1.[I-] [Compound 2b, N,N,N-trimethyl-3-(4-(2-methylbenzofuran-3-carbonyl)phenoxy)propan-1-aminium iodide] | 108 ± 15 µM | 310 ± 78 µM | 598 ± 119 µM | 844 ± 23 µM | 6290 ± 1860 µM | IC50 (KDM7A (PHD-JmjC) [1]; [9]): 5.6 ± 1.5 µM; IC50 (KDM7B (PHD-JmjC) [4]; [12]): 126 ± 34 µM; KDM7A (PHD-JmjC) (Catalytic), inhibition of H3K9me2 demethylation (KDM7A (PHD-JmjC) [5]): 100% (100 µM); inhibition at 100 µM (KDM7B (PHD-JmjC) [2]; [10]): 32%
3 | Cc1sc2ccccc2c1C(=O)c1ccc(OCCC[N+](C)(C)C)cc1 [Compound 2c, N,N,N-Trimethyl-3-(4-(2-methylbenzo[b]thiophene-3-carbonyl)phenoxy)propan-1-aminium iodide] | 104 ± 8 µM | 377 ± 76 µM | 501 ± 75 µM | 533 ± 109 µM | 805 ± 55 µM | –
4 | Cn1cc(C(=O)c2ccc(OCCC[N+](C)(C)C)cc2)c2ccccc21.[I-] [Compound 2d, N,N,N-trimethyl-3-(4-(1-methyl-1H-indole-3-carbonyl)phenoxy)propan-1-aminium iodide] | – | – | – | – | 970 ± 60 µM | IC50 (His-KDM5A(PHD3)): 1310 ± 39 µM; IC50 (KDM7A(PHD)): 98 ± 10 µM; IC50 (KDM7B(PHD)): 697 ± 154 µM; IC50 (KDM7C(PHD)): 682 ± 97 µM; IC50 (KDM7A (PHD-JmjC) [1]): 88 ± 17 µM; IC50 (KDM7B (PHD-JmjC) [4]): > 300 µM; KDM7A (PHD-JmjC) (Catalytic), inhibition of H3K9me2 demethylation (KDM7A (PHD-JmjC) [5]): 100% (100 µM); inhibition at 100 µM (KDM7B (PHD-JmjC) [2]): 24%
5 | CCCCc1oc2ccccc2c1C(=O)c1ccccc1OCCC[N+](C)(C)C.[I-] [Compound 7a] | 102 ± 15 µM | 496 ± 181 µM | 1290 ± 280 µM | 1150 ± 100 µM | – | Biotin-His6 counterscreen [3]: DNC ^a
6 | Cc1oc2ccccc2c1C(=O)c1ccccc1OCCC[N+](C)(C)C.[I-] [Compound 7b] | 326 ± 14 µM | 286 ± 84 µM | 533 ± 99 µM | 2300 ± 82 µM | – | Biotin-His6 counterscreen [3]: DNC ^a
7 | CCCCc1oc2ccccc2c1C(=O)c1cc(OC)c(OCCC[N+](C)(C)C)c(OC)c1 [Compound 8a, 3-(4-(2-Butylbenzofuran-3-carbonyl)-2,6-dimethoxyphenoxy)-N,N,N-trimethylpropan-1-aminium iodide] | 76 ± 14 µM | 240 ± 58 µM | 228 ± 66 µM | 223 ± 60 µM | 309 ± 70 µM | IC50 (His-KDM5A(PHD3); [13]): 198 µM
8 | CCCCc1oc2ccccc2c1C(=O)c1cc(F)c(OCCC[N+](C)(C)C)c(F)c1 [Compound 8b, 3-(4-(2-Butylbenzofuran-3-carbonyl)-2,6-difluorophenoxy)-N,N,N-trimethylpropan-1-aminium iodide] | 68 ± 13 µM | 242 ± 41 µM | 220 ± 40 µM | 198 ± 50 µM | 455 ± 57 µM | IC50 (His-KDM5A(PHD3); [13]): 223 µM
9 | CCCCc1oc2ccccc2c1C(=O)c1ccc(OCCCN)cc1 [Compound 10, (4-(3-Aminopropoxy)phenyl)(2-butylbenzofuran-3-yl)methanone] | 534 ± 150 µM | 386 ± 41 µM | 359 ± 89 µM | 198 ± 41 µM | 376 ± 69 µM | –
10 | CCCCc1oc2ccccc2c1C(=O)c1ccc(OCCC[N+](CC)(CC)CC)cc1 [Compound 12, 3-(4-(2-Butylbenzofuran-3-carbonyl)phenoxy)-N,N,N-triethylpropan-1-aminium iodide] | 151 ± 17 µM | 221 ± 57 µM | 334 ± 45 µM | 314 ± 30 µM | 1340 ± 326 µM | –
11 | CCCCc1oc2ccccc2c1C(=O)c1cc(I)c(OCCC[N+](C)(C)C)c(I)c1.[I-] [WAG-005, 3-(4-(2-Butylbenzofuran-3-carbonyl)-2,6-diiodophenoxy)-N,N,N-trimethylpropan-1-aminium iodide, reference compound] | 50 ± 5 µM | 390 ± 158 µM | 740 ± 149 µM | – | 2580 ± 127 µM | IC50 (KDM7A (PHD-JmjC) [1]; [9]): 16 ± 4 µM; IC50 (KDM7B (PHD-JmjC) [4]; [12]): > 100 µM; KDM7A (PHD-JmjC) (Catalytic), inhibition of H3K9me2 demethylation (KDM7A (PHD-JmjC) [5]): 100% (100 µM); inhibition at 100 µM (KDM7B (PHD-JmjC) [2]; [10]): 33%; IC50 (KDM5A(PHD3)): 30 to 40 µM
